{"source": "ChEMBL document CHEMBL5356964", "about": "“Design, synthesis and anti-rheumatoid arthritis activity of target TLR4 inhibitors” (Bioorg Med Chem, 2024)", "key": {"RAW264.7 [1]": {"system": "RAW264.7", "experiment": "Antiarthritic activity against LPS-induced mouse RAW264.7 cells assessed as downregulation of STAT3 expression at 1 uM preincubated with compound for 24 hrs followed by LPS-induction and measured after 24 hrs by immunofluorescence analysis", "type": "functional, cell-based", "settings": "time 48.0 hrs"}, "RAW264.7 [2]": {"system": "RAW264.7", "experiment": "Antiarthritic activity against LPS-induced mouse RAW264.7 cells assessed as downregulation of JAK2 expression at 1 uM preincubated with compound for 24 hrs followed by LPS-induction and measured after 24 hrs by Western blot analysis", "type": "functional, cell-based", "settings": "time 48.0 hrs"}, "RAW264.7 [3]": {"system": "RAW264.7", "experiment": "Antiarthritic activity against LPS-induced mouse RAW264.7 cells assessed as downregulation of TLR4 mRNA expression at 1 uM preincubated with compound for 24 hrs followed by LPS-induction and measured after 24 hrs by RT-PCR analysis", "type": "functional, cell-based", "settings": "time 48.0 hrs"}, "Toll-like receptor 4 [4]": {"molecular_target": "T1, Toll-like receptor 4 (Homo sapiens, UniProt O00206)", "T1 sequence (O00206 whole entry)": "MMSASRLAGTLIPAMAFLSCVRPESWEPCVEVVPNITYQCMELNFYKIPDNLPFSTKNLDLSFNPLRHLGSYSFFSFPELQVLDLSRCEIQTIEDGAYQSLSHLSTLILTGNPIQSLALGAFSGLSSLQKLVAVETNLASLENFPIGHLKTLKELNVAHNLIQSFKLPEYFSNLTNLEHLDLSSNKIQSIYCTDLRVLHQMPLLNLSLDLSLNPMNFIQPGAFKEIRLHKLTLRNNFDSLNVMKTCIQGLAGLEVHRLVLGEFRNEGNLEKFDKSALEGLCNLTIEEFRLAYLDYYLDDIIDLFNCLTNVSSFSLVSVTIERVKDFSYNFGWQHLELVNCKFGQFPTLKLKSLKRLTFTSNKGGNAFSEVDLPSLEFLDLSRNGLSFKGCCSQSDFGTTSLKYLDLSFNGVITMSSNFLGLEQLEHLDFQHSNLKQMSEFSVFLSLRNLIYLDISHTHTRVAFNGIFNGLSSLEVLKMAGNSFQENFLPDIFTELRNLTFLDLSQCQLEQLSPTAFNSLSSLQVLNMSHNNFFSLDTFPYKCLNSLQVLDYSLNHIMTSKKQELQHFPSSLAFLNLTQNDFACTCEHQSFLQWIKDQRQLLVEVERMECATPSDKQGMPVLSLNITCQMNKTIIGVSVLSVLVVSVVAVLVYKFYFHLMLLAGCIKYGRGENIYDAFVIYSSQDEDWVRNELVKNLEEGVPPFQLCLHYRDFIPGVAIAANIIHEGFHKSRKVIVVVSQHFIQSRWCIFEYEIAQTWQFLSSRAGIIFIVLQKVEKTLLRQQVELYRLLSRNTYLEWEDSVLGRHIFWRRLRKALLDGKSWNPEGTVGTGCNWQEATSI", "experiment": "Inhibition of TLR4 (unknown origin) using TMB as substrate incubated for 90 mins"}, "RAW264.7 [5]": {"system": "RAW264.7", "experiment": "Antiproliferative activity against LPS-induced- mouse RAW264.7 cells assessed as decrease in number of cells at 1 uM pretreated with compound for 24 hrs followed by LPS induction and measured after 24 hrs", "type": "functional, cell-based", "settings": "time 48.0 hrs"}, "RAW264.7 [6]": {"system": "RAW264.7", "experiment": "Antiproliferative activity against LPS-induced- mouse RAW264.7 cells assessed as inhibition of cell growth incubated for 24 hrs by CCK-8 assay", "type": "functional, cell-based", "settings": "RAW264.7, 24 h"}, "Mus musculus [7]": {"system": "Mus musculus", "experiment": "Antiarthritic activity against collagen-induced rheumatoid arthritis mouse model assessed as reduction in TNF-alpha level at 100 mg/kg administered for 15 days by ELISA analysis", "type": "functional, organism-based", "settings": "time 15.0 day"}, "RAW264.7 [8]": {"system": "RAW264.7", "experiment": "Antiarthritic activity against LPS-induced mouse RAW264.7 cells assessed as downregulation of TLR4 expression at 1 uM preincubated with compound for 24 hrs followed by LPS-induction and measured after 24 hrs by Western blot analysis", "type": "functional, cell-based", "settings": "time 48.0 hrs"}, "Mus musculus [9]": {"system": "Mus musculus", "experiment": "Antiarthritic activity against collagen-induced rheumatoid arthritis mouse model assessed as reduction in paw swelling at 100 mg/kg administered for 15 days and measured on day 28", "type": "functional, organism-based", "settings": "time 28.0 day"}, "RAW264.7 [10]": {"system": "RAW264.7", "experiment": "Antiarthritic activity against LPS-induced mouse RAW264.7 cells assessed as reduction in IL-1beta level at 1 uM incubated for 24 hrs (Rvb 665.1 +/- 82.1 pg/L)", "type": "functional"}, "RAW264.7 [11]": {"system": "RAW264.7", "experiment": "Antiarthritic activity against LPS-induced mouse RAW264.7 cells assessed as reduction in IL-6 level at 1 uM incubated for 24 hrs (Rvb 231.1 +/- 24.2 pg/L)", "type": "functional"}, "RAW264.7 [12]": {"system": "RAW264.7", "experiment": "Antiarthritic activity against LPS-induced mouse RAW264.7 cells assessed as downregulation of JAK2 mRNA expression at 1 uM preincubated with compound for 24 hrs followed by LPS-induction and measured after 24 hrs by RT-PCR analysis", "type": "functional, cell-based", "settings": "time 48.0 hrs"}, "RAW264.7 [13]": {"system": "RAW264.7", "experiment": "Antiarthritic activity against LPS-induced mouse RAW264.7 cells assessed as downregulation of TLR4 expression at 1 uM preincubated with compound for 24 hrs followed by LPS-induction and measured after 24 hrs by immunofluorescence analysis", "type": "functional, cell-based", "settings": "time 48.0 hrs"}, "Mus musculus [14]": {"system": "Mus musculus", "experiment": "Antiarthritic activity against collagen-induced rheumatoid arthritis mouse model assessed as reduction in IL-1beta level at 100 mg/kg administered for 15 days by ELISA analysis", "type": "functional, organism-based", "settings": "time 15.0 day"}, "RAW264.7 [15]": {"system": "RAW264.7", "experiment": "Antiarthritic activity against LPS-induced mouse RAW264.7 cells assessed as reduction in IL-1beta level at 1 uM pretreated with compound for 24 hrs followed by LPS induction and measured after 24 hrs", "type": "functional, cell-based", "settings": "time 48.0 hrs"}, "RAW264.7 [16]": {"system": "RAW264.7", "experiment": "Antiarthritic activity against LPS-induced mouse RAW264.7 cells assessed as reduction in TNF-alpha level at 1 uM pretreated with compound for 24 hrs followed by LPS induction and measured after 24 hrs", "type": "functional, cell-based", "settings": "time 48.0 hrs"}, "Mus musculus [17]": {"system": "Mus musculus", "experiment": "Antiarthritic activity against collagen-induced rheumatoid arthritis mouse model assessed as reduction in IL-6 level at 100 mg/kg administered for 15 days by ELISA analysis", "type": "functional, organism-based", "settings": "time 15.0 day"}, "RAW264.7 [18]": {"system": "RAW264.7", "experiment": "Antiarthritic activity against LPS-induced mouse RAW264.7 cells assessed as downregulation of TNF-alpha expression at 1 uM preincubated with compound for 24 hrs followed by LPS-induction and measured after 24 hrs by immunofluorescence analysis", "type": "functional, cell-based", "settings": "time 48.0 hrs"}, "RAW264.7 [19]": {"system": "RAW264.7", "experiment": "Antiarthritic activity against LPS-induced mouse RAW264.7 cells assessed as downregulation of NF-kappaB expression at 1 uM preincubated with compound for 24 hrs followed by LPS-induction and measured after 24 hrs by immunofluorescence analysis", "type": "functional, cell-based", "settings": "time 48.0 hrs"}, "RAW264.7 [20]": {"system": "RAW264.7", "experiment": "Antiproliferative activity against LPS-induced- mouse RAW264.7 cells assessed as cell survival at 1 uM pretreated with compound for 24 hrs followed by LPS induction and measured after 24 hrs", "type": "functional, cell-based", "settings": "time 48.0 hrs"}, "RAW264.7 [21]": {"system": "RAW264.7", "experiment": "Antiarthritic activity against LPS-induced mouse RAW264.7 cells assessed as downregulation of NF-kappaB mRNA expression at 1 uM preincubated with compound for 24 hrs followed by LPS-induction and measured after 24 hrs by RT-PCR analysis", "type": "functional, cell-based", "settings": "time 48.0 hrs"}, "RAW264.7 [22]": {"system": "RAW264.7", "experiment": "Antiarthritic activity against LPS-induced mouse RAW264.7 cells assessed as downregulation of STAT3 expression at 1 uM preincubated with compound for 24 hrs followed by LPS-induction and measured after 24 hrs by Western blot analysis", "type": "functional, cell-based", "settings": "time 48.0 hrs"}, "Toll-like receptor 4 [23]": {"molecular_target": "T1, Toll-like receptor 4", "experiment": "Potency index, ratio of methotrexate IC50 to test compound IC50 for inhibition of TLR4 (unknown origin) using TMB as substrate incubated for 90 mins"}, "RAW264.7 [24]": {"system": "RAW264.7", "experiment": "Antiarthritic activity against LPS-induced mouse RAW264.7 cells assessed as downregulation of STAT3 mRNA expression at 1 uM preincubated with compound for 24 hrs followed by LPS-induction and measured after 24 hrs by RT-PCR analysis", "type": "functional, cell-based", "settings": "time 48.0 hrs"}, "Mus musculus [25]": {"system": "Mus musculus", "experiment": "Antiarthritic activity against collagen-induced rheumatoid arthritis mouse model assessed as reduction in clinical score at 100 mg/kg administered for 15 days", "type": "functional, organism-based", "settings": "time 15.0 day"}, "RAW264.7 [26]": {"system": "RAW264.7", "experiment": "Antiarthritic activity against LPS-induced mouse RAW264.7 cells assessed as downregulation of NF-kappaB expression at 1 uM preincubated with compound for 24 hrs followed by LPS-induction and measured after 24 hrs by Western blot analysis", "type": "functional, cell-based", "settings": "time 48.0 hrs"}, "[27]": {"experiment": "Antiproliferative activity against rat Synovial cell assessed as inhibition of cell growth incubated for 48 hrs by CCK-8 assay", "type": "functional, cell-based"}, "RAW264.7 [28]": {"system": "RAW264.7", "experiment": "Antiarthritic activity against LPS-induced mouse RAW264.7 cells assessed as reduction in IL-6 level at 1 uM pretreated with compound for 24 hrs followed by LPS induction and measured after 24 hrs", "type": "functional, cell-based", "settings": "time 48.0 hrs"}, "RAW264.7 [29]": {"system": "RAW264.7", "experiment": "Antiarthritic activity against LPS-induced mouse RAW264.7 cells assessed as reduction in TNF-alpha level at 1 uM incubated for 24 hrs (Rvb 653.3 +/- 70.1 pg/L)", "type": "functional"}, "RAW264.7 [30]": {"system": "RAW264.7", "experiment": "Antiarthritic activity against LPS-induced mouse RAW264.7 cells assessed as downregulation of TNF-alpha expression at 1 uM preincubated with compound for 24 hrs followed by LPS-induction and measured after 24 hrs by Western blot analysis", "type": "functional, cell-based", "settings": "time 48.0 hrs"}, "RAW264.7 [31]": {"system": "RAW264.7", "experiment": "Antiarthritic activity against LPS-induced mouse RAW264.7 cells assessed as downregulation of TNF-alpha mRNA expression at 1 uM preincubated with compound for 24 hrs followed by LPS-induction and measured after 24 hrs by RT-PCR analysis", "type": "functional, cell-based", "settings": "time 48.0 hrs"}, "RAW264.7 [32]": {"system": "RAW264.7", "experiment": "Antiarthritic activity against LPS-induced mouse RAW264.7 cells assessed as downregulation of JAK2 expression at 1 uM preincubated with compound for 24 hrs followed by LPS-induction and measured after 24 hrs by immunofluorescence analysis", "type": "functional, cell-based", "settings": "time 48.0 hrs"}}, "note": "Active and inactive are the calls of the source. The calls are words filed in the database; no cut-off is given here."}
{"smiles": "CC(=O)CC(=O)C1CC(O)CCC1=O", "note": "(configuration not stated)", "values": [{"measurement": "Activity", "setting": "RAW264.7 [1]", "value": "Active"}, {"measurement": "Activity", "setting": "RAW264.7 [2]", "value": "Active"}, {"measurement": "Activity", "setting": "RAW264.7 [3]", "value": "Active"}, {"measurement": "IC50", "setting": "Toll-like receptor 4 [4]", "value": 0.43, "unit": "µM"}, {"measurement": "Activity", "setting": "RAW264.7 [5]", "value": "Active"}, {"measurement": "IC50", "setting": "RAW264.7 [6]", "value": 0.73, "unit": "µM"}, {"measurement": "Activity", "setting": "Mus musculus [7]", "value": "Active"}, {"measurement": "Activity", "setting": "RAW264.7 [8]", "value": "Active"}, {"measurement": "Activity", "setting": "Mus musculus [9]", "value": "Active"}, {"measurement": "Activity", "setting": "RAW264.7 [10]", "value": 258.3, "unit": "pg/L"}, {"measurement": "Activity", "setting": "RAW264.7 [11]", "value": 90.2, "unit": "pg/L"}, {"measurement": "Activity", "setting": "RAW264.7 [12]", "value": "Active"}, {"measurement": "Activity", "setting": "RAW264.7 [13]", "value": "Active"}, {"measurement": "Activity", "setting": "Mus musculus [14]", "value": "Active"}, {"measurement": "Activity", "setting": "RAW264.7 [15]", "value": "Active"}, {"measurement": "Activity", "setting": "RAW264.7 [16]", "value": "Active"}, {"measurement": "Activity", "setting": "Mus musculus [17]", "value": "Active"}, {"measurement": "Activity", "setting": "RAW264.7 [18]", "value": "Active"}, {"measurement": "Activity", "setting": "RAW264.7 [19]", "value": "Active"}, {"measurement": "Activity", "setting": "RAW264.7 [20]", "value": "Active"}, {"measurement": "Activity", "setting": "RAW264.7 [21]", "value": "Active"}, {"measurement": "Activity", "setting": "RAW264.7 [22]", "value": "Active"}, {"measurement": "Ratio IC50", "setting": "Toll-like receptor 4 [23]", "value": 2.4}, {"measurement": "Activity", "setting": "RAW264.7 [24]", "value": "Active"}, {"measurement": "Activity", "setting": "Mus musculus [25]", "value": "Active"}, {"measurement": "Activity", "setting": "RAW264.7 [26]", "value": "Active"}, {"measurement": "IC50", "setting": "[27]", "value": 1.21, "unit": "µM"}, {"measurement": "Activity", "setting": "RAW264.7 [28]", "value": "Active"}, {"measurement": "Activity", "setting": "RAW264.7 [29]", "value": 151.5, "unit": "pg/L"}, {"measurement": "Activity", "setting": "RAW264.7 [30]", "value": "Active"}, {"measurement": "Activity", "setting": "RAW264.7 [31]", "value": "Active"}, {"measurement": "Activity", "setting": "RAW264.7 [32]", "value": "Active"}]}
